39 compounds from US10005739B2, “Quinazolinone and isoquinolinone derivative” (CHUGAI SEIYAKU KABUSHIKI KAISHA, priority 2013, dated 2018) can be followed below.

DDR1, sequence (Q08345 19-913): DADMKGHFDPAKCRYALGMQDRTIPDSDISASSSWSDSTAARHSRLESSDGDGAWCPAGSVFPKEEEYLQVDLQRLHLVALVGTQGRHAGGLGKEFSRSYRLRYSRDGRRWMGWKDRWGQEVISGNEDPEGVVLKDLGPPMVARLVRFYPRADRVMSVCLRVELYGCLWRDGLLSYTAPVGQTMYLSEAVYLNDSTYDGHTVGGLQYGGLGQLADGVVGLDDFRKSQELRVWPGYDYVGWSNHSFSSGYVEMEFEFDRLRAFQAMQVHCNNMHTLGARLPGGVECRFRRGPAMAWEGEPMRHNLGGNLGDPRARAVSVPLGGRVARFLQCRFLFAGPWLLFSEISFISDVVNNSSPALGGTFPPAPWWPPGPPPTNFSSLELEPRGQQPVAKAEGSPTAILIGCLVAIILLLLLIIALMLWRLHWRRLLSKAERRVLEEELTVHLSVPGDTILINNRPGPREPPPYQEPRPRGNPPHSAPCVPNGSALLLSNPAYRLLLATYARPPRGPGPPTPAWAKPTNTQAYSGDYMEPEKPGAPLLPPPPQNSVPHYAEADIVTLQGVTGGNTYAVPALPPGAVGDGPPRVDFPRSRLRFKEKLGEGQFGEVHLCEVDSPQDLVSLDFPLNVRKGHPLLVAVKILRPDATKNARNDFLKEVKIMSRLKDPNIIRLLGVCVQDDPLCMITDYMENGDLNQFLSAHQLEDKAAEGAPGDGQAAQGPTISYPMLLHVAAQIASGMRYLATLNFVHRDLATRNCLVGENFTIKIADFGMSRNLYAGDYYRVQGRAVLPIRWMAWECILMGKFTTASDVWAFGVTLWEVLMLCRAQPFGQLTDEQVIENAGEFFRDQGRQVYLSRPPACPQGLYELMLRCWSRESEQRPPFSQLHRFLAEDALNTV

The experiment deals with DDR1 (Homo sapiens (Human), UniProt Q08345). The experiment can be described thus: Measurement of DDR1 enzyme inhibitory activity (phosphorylation of biotinylated peptide, time-resolved fluorescence). Format: biochemical. As to conditions: human DDR1 enzyme, biotinylated peptide phosphorylation; read-out: DDR1 enzyme inhibition assay IC50. As for the experimental part:
1. Measurement of DDR1 Enzyme Inhibitory Activity
The DDR1 enzyme inhibitory activity was determined with human DDR1 enzyme prepared using the baculovirus expression system, based on the inhibitory activity of phosphorylation of a biotinylated peptide ([…]) by the enzyme. The phosphorylated biotinylated peptide was detected using time-resolved fluorescence, with an anti-phosphorylated tyrosine antibody conjugated with europium cryptate and streptavidin conjugated with XL665 which is a derivative of allophycocyanin.
In the case of `CCSc1ccc(F)cc1Nn1cnc2c(Br)cc(C(F)(F)F)cc2c1=O` [Compound C-21], the IC50 was 600 nM.
The value for `CCS(=O)(=O)c1ccc(F)cc1Nn1cnc2c(Br)cc(C(F)(F)F)cc2c1=O` [Compound C-22, 8-Bromo-3-(2-ethylsulfonyl-5-fluoroanilino)-6-(trifluoromethyl)quinazolin-4-one] was 300 nM; that for `CCSc1ccc(Br)cc1Nn1cnc2c(Br)cc(OC(F)(F)F)cc2c1=O` [Compound C-23, 8-Bromo-3-(5-bromo-2-ethylsulfanylanilino)-6-(trifluoromethoxy)quinazolin-4-one] was 400 nM.
The value for `CCS(=O)(=O)c1ccc(Br)cc1Nn1cnc2c(Br)cc(OC(F)(F)F)cc2c1=O` [Compound C-24, 8-Bromo-3-(5-bromo-2-ethylsulfonylanilino)-6-(trifluoromethoxy)quinazolin-4-one] was 280 nM; that for `CCSc1ccc(Br)cc1Nn1cnc2c(Br)cc(C(F)(F)F)cc2c1=O` [Compound C-25, 8-Bromo-3-(5-bromo-2-ethylsulfanylanilino)-6-(trifluoromethyl)quinazolin-4-one] was 180 nM.
The value for `CCS(=O)(=O)c1ccc(Br)cc1Nn1cnc2c(Br)cc(C(F)(F)F)cc2c1=O` [Compound C-26, 8-Bromo-3-(5-bromo-2-ethylsulfonylanilino)-6-(trifluoromethyl)quinazolin-4-one] was 150 nM.
`CCSc1ccc(OC)cc1Nn1cnc2ccc(OC(F)(F)F)cc2c1=O` [Compound C-27, 3-(2-Ethylsulfanyl-5-methoxyanilino)-6-(trifluoromethoxy)quinazolin-4-one]: the IC50 stood at 200 nM.
For `CCS(=O)(=O)c1ccc(OC)cc1Nn1cnc2ccc(OC(F)(F)F)cc2c1=O` [Compound C-28, 3-(2-Ethylsulfonyl-5-methoxyanilino)-6-(trifluoromethoxy)quinazolin-4-one] the value was 290 nM.
For `CCSc1ccc(OC)cc1Nn1cnc2c(Br)cc(C(F)(F)F)cc2c1=O` [Compound C-29, 8-Bromo-3-(2-ethylsulfanyl-5-methoxyanilino)-6-(trifluoromethyl)quinazolin-4-one] the value was 160 nM; for `CCS(=O)(=O)c1ccc(OC)cc1Nn1cnc2c(Br)cc(C(F)(F)F)cc2c1=O` [Compound C-30, 8-Bromo-3-(2-ethylsulfonyl-5-methoxyanilino)-6-(trifluoromethyl)quinazolin-4-one], 150 nM.
For `CCOc1ccc(SCC)c(Nn2cnc3c(Br)cc(C(F)(F)F)cc3c2=O)c1` [Compound C-31, 8-Bromo-3-(5-ethoxy-2-ethylsulfanylanilino)-6-(trifluoromethyl)quinazolin-4-one] the value was 330 nM.
As for `CCOc1ccc(S(=O)(=O)CC)c(Nn2cnc3c(Br)cc(C(F)(F)F)cc3c2=O)c1` [Compound C-32, 8-Bromo-3-(5-ethoxy-2-ethylsulfonylanilino)-6-(trifluoromethyl)quinazolin-4-one], the IC50 is 1970 nM.
For `CCSc1ccc(C(F)(F)F)cc1Nn1cnc2c(Br)cc(C(F)(F)F)cc2c1=O` [Compound C-34, 8-Bromo-3-[2-ethylsulfanyl-5-(trifluoromethyl)anilino]-6-(trifluoromethyl)quinazolin-4-one] the value was 170 nM; for `CCS(=O)(=O)c1ccc(C(F)(F)F)cc1Nn1cnc2c(Br)cc(C(F)(F)F)cc2c1=O` [Compound C-35, 8-Bromo-3-[2-ethylsulfonyl-5-(trifluoromethyl)anilino]-6-(trifluoromethyl)quinazolin-4-one], 210 nM; for `C#Cc1ccc(SCC)c(Nn2cnc3c(Br)cc(C(F)(F)F)cc3c2=O)c1` [Compound C-36, 8-Bromo-3-(2-ethylsulfanyl-5-ethynylanilino)-6-(trifluoromethyl)quinazolin-4-one], 280 nM.
Consider `C#Cc1ccc(S(=O)(=O)CC)c(Nn2cnc3c(Br)cc(C(F)(F)F)cc3c2=O)c1` [Compound C-37, 8-Bromo-3-(2-ethylsulfonyl-5-ethynylanilino)-6-(trifluoromethyl)quinazolin-4-one], for which the IC50 was determined as 240 nM.
For the compound `CCSc1c(Cl)cc(Cl)cc1Nn1cnc2ccc(C(F)(F)F)cc2c1=O` [Compound C-38, 3-(3,5-Dichloro-2-ethylsulfanylanilino)-6-(trifluoromethyl)quinazolin-4-one], the IC50 was 280 nM.
The value for `CCS(=O)(=O)c1c(Cl)cc(Cl)cc1Nn1cnc2ccc(C(F)(F)F)cc2c1=O` [Compound C-39, 3-(3,5-Dichloro-2-ethylsulfonylanilino)-6-(trifluoromethyl)quinazolin-4-one] was 140 nM; that for `CCSc1cc(Cl)c(Cl)cc1Nn1cnc2ccc(C(F)(F)F)cc2c1=O` [Compound C-40, 3-(4,5-Dichloro-2-ethylsulfanylanilino)-6-(trifluoromethyl)quinazolin-4-one] was 190 nM.
`CCS(=O)(=O)c1cc(Cl)c(Cl)cc1Nn1cnc2ccc(C(F)(F)F)cc2c1=O` [Compound C-41, 3-(4,5-Dichloro-2-ethylsulfonylanilino)-6-(trifluoromethyl)quinazolin-4-one]: the IC50 was 110 nM.
For `CCSc1cc(Cl)c(C#N)cc1Nn1cnc2ccc(C(F)(F)F)cc2c1=O` [Compound C-42, 2-Chloro-4-ethylsulfanyl-5-[[4-oxo-6-(trifluoromethyl)quinazolin-3-yl]amino]benzonitrile] the value was 450 nM.
The value for `CCS(=O)(=O)c1cc(Cl)c(C#N)cc1Nn1cnc2ccc(C(F)(F)F)cc2c1=O` [Compound C-43, 2-Chloro-4-ethylsulfonyl-5-[[4-oxo-6-(trifluoromethyl)quinazolin-3-yl]amino]benzonitrile] was 330 nM; that for `CCSc1ncc(Cl)cc1Nn1cnc2c(Br)cccc2c1=O` [Compound D-1, 8-Bromo-3-[(5-chloro-3-ethylsulfanylpyridin-3-yl)amino]quinazolin-4-one] was 2360 nM; that for `CCSc1ncc(Cl)cc1Nn1cnc2ccc(C(F)(F)F)cc2c1=O` [Compound D-2, 3-[(5-Chloro-2-ethylsulfanylpyridin-3-yl)amino]-6-(trifluoromethyl)quinazolin-4-one] was 410 nM.
The value for `CCS(=O)(=O)c1ncc(Cl)cc1Nn1cnc2ccc(C(F)(F)F)cc2c1=O` [Compound D-3, 3-[(5-Chloro-2-ethylsulfonylpyridin-3-yl)amino]-6-(trifluoromethyl)quinazolin-4-one] was 430 nM.
For the compound `CCSc1ncc(Cl)cc1Nn1cnc2c(Br)cc(C)cc2c1=O` [Compound D-4, 8-Bromo-3-[(5-chloro-2-ethylsulfanylpyridin-3-yl)amino]-6-methylquinazolin-4-one], the concentration for half-maximal inhibition (IC50) was 580 nM.
The value for `CCS(=O)(=O)c1ncc(Cl)cc1Nn1cnc2c(Br)cc(C)cc2c1=O` [Compound D-5, 8-Bromo-3-[(5-chloro-2-ethylsulfonylpyridin-3-yl)amino]-6-methylquinazolin-4-one] was 130 nM.
For `CCSc1cnc(Cl)cc1Nn1cnc2ccc(C(F)(F)F)cc2c1=O` [Compound D-6, 3-[(2-Chloro-5-ethylsulfanylpyridin-4-yl)amino]-6-(trifluoromethyl)quinazolin-4-one] the value was 93 nM; for `CCSc1ccc(Cl)cc1Cn1cnc2c(Br)cc(C)cc2c1=O` [Compound E-1, 8-Bromo-3-[(5-chloro-2-ethylsulfanylphenyl)methyl]-6-methylquinazolin-4-one], 640 nM; for `CCS(=O)(=O)c1ccc(Cl)cc1Cn1cnc2c(Br)cc(C)cc2c1=O` [Compound E-2, 8-Bromo-3-[(5-chloro-2-ethylsulfonylphenyl)methyl]-6-methylquinazolin-4-one], 600 nM.
For `CCSc1ccc(Cl)cc1Cn1cnc2ccc(OC(F)(F)F)cc2c1=O` [Compound E-3, 3-[(5-Chloro-2-ethylsulfanylphenyl)methyl]-6-(trifluoromethoxy)quinazolin-4-one] the value was 480 nM; for `CCSc1ccc(Cl)cc1Cn1cnc2cc(C)c(Br)cc2c1=O` [Compound E-5, 6-Bromo-3-[(5-chloro-2-ethylsulfanylphenyl)methyl]-7-methylquinazolin-4-one], 950 nM.
For the compound `CCS(=O)(=O)c1ccc(Cl)cc1Cn1cnc2cc(C)c(Br)cc2c1=O` [Compound E-6, 6-Bromo-3-[(5-chloro-2-ethylsulfonylphenyl)methyl]--7-methylquinazolin-4-one], the 50% inhibitory concentration (IC50) amounted to 1100 nM.
The value for `CCSc1ccc(Cl)cc1Cn1cnc2cc(C)c(I)cc2c1=O` [Compound E-7, 3-[(5-Chloro-2-ethylsulfanylphenyl)methyl]-6-iodo-7-methylquinazolin-4-one] was 790 nM; that for `CCS(=O)(=O)c1ccc(Cl)cc1Cn1cnc2cc(C)c(I)cc2c1=O` [Compound E-8, 3-[(5-Chloro-2-ethylsulfonylphenyl)methyl]-6-iodo-7-methylquinazolin-4-one] was 200 nM.
For `CCSc1ccc(Cl)cc1Cn1cnc2c(Br)cc(C(F)(F)F)cc2c1=O` [Compound E-9, 8-Bromo-3-[(5-chloro-2-ethylsulfanylphenyl)methyl]-6-(trifluoromethyl)quinazolin-4-one], the half-inhibitory concentration (IC50) was 590 nM.
With `CCSc1ccc(Cl)cc1Cn1cnc2c(Br)cc(OC(F)(F)F)cc2c1=O` [Compound E-11, 8-bromo-3-[(5-chloro-2-ethylsulfanylphenyl)methyl]-6-(trifluoromethoxy)quinazolin-4-one], the IC50 came to 540 nM.
Turning to `CCS(=O)(=O)c1ccc(Cl)cc1Cn1cnc2c(Br)cc(OC(F)(F)F)cc2c1=O` [Compound E-12, 8-Bromo-3-[(5-chloro-2-ethylsulfonylphenyl)methyl]-6-(trifluoromethoxy)quinazolin-4-one], the IC50 amounted to 390 nM.
For `CCS(=O)(=O)c1ccc(Cl)cc1Cn1cnc2c(Cl)cc(OC(F)(F)F)cc2c1=O` [Compound E-14, 8-Chloro-3-[(5-chloro-2-ethylsulfonylphenyl)methyl]-6-(trifluoromethoxy)quinazolin-4-one] the value was 120 nM.

As a reminder, the IC50 is the concentration at which inhibition is half-maximal.
